Experimental data reported in patent publication US8450305B2, “Macrocyclic compounds useful as inhibitors of kinases and HSP90” (Universite de Strasbourg, priority 2006, dated 2013).

Experiments:
Format in all cases: biochemical
[1] = molecular target: T1, EGF-R (Homo sapiens, UniProt P00533); experiment: Radiometric protein kinase assay, EGF-R; conditions: 1 μM ATP; read-out: Inhibitory activity (IC50:μM) EGF-R
T1 construct: host or cells: Sf9 insect cells (baculovirus)
From the text: (§1) All protein kinases were expressed in Sf9 insect cells as human recombinant GST-fusion proteins or His-tagged proteins by means of the baculovirus expression system. Kinases were purified by affinity chromatography using either GSH-agarose (Sigma) or Ni-NTH-agarose (Qiagen). The purity of each kinase was checked by SDS-PAGE/silver staining and the identity of each kinase was verified by western blot analysis with kinase specific antibodies or by mass spectroscopy.
(§2) A radiometric protein kinase assay (^33PanQinase® Activity Assay) was used for measuring the kinase activity of the 24 protein kinases. All kinase assays were performed in 96-well FlashPlates™ from Perkin Elmer (Boston, Mass., USA) in a 50 μl reaction volume. The reaction cocktail was pipetted in 4 steps in the following order: • 20 μl of assay buffer • 5 μl of ATP solution (in H2O) • 5 μl of test compound (in 10% DMSO) • 10 μl of substrate/10 […] of enzyme solution (premixed)
(§3) The assay for all enzymes contained 60 mM HEPES-NaOH, pH 7.5, 3 mM MgCl2, 3 mM MnCl2, 3 μM Na-orthovanadate, 1.2 mM DTT, 50 μg/ml PEG20000, 1 μM [γ-^33P]-ATP (approx. 5×10^05 cpm per well).
(§4) For the 24 kinase assays, the following amounts of enzyme and substrate were used per well:
(§5) The reaction cocktails were incubated at 30° C. for 80 minutes. The reaction was stopped with 50 μl of 2% (v/v) H3PO4, plates were aspirated and washed two times with 200 μl of 0.9% (w/v) NaCl or 200 μl H2O. Incorporation of ^33Pi was determined with a microplate scintillation counter (Microbeta Trilux, Wallac).
(§6) The median value of the counts in column 1 (n=8) of each assay plate was defined as “low control”. This value reflects unspecific binding of radioactivity to the plate in the absence of a protein kinase but in the presence of the substrate. The median value of the counts in column 7 of each assay plate (n=8) was taken as the “high control”, i.e. full activity in the absence of any inhibitor. The difference between high and low control was taken as 100% activity.
(§7) As part of the data evaluation the low control value from a particular plate was subtracted from the high control value as well as from all 80 “compound values” of the corresponding plate. The residual activity (in %) for each well of a particular plate was calculated by using the following formula: Res. Activity (%)=100×[(cpm of compound−low control)/(high control−low control)]
(§8) The residual activities for each concentration and the compound IC50 values were calculated using Quattro Workflow V2.1.0.0 (Quattro Research GmbH, Munich, Germany; www.quattro-research.com). The model used was “Sigmoidal response (variable slope)” with parameters “top” fixed at 100% and “bottom” at 0%.

[2] = molecular target: T2, SRC (Homo sapiens, UniProt P12931); experiment: Radiometric protein kinase assay, SRC; conditions: 1 μM ATP; read-out: Inhibitory activity (IC50:μM) SRC
T2 construct: host or cells: Sf9 insect cells (baculovirus)
From the text: as §1, §2, §3, §4, §5, §6, §7, §8

[3] = molecular target: T3, TIE2 (Homo sapiens, UniProt Q02763); experiment: Radiometric protein kinase assay, TIE2; conditions: 1 μM ATP; read-out: Inhibitory activity (IC50:μM) TIE2
T3 construct: host or cells: Sf9 insect cells (baculovirus)
From the text: as §1
as §2, with “(premixed) […]” for “(premixed)”
The reaction cocktails were incubated at 30° C. for 80 minutes. […] Incorporation of ^33Pi was determined with a microplate scintillation counter (Microbeta Trilux, Wallac).
The median value of the counts in column 1 (n=8) of each assay plate was defined as “low control”. This value reflects unspecific binding of radioactivity to the plate in the absence of a protein kinase but in the presence of the substrate. […]
as §7
The residual activities for each concentration and the compound IC50 values were calculated using Quattro Workflow V2.1.0.0 (Quattro Research GmbH, Munich, Germany; www.quattro-research.com). […]

[4] = molecular target: T4, VEGF-R3 (Homo sapiens, UniProt P35916); experiment: Radiometric protein kinase assay, VEGF-R3; conditions: 1 μM ATP; read-out: Inhibitory activity (IC50:μM) VEGF-R3
T4 construct: host or cells: Sf9 insect cells (baculovirus)
From the text: as §1, §2, §3, §4, §5, §6, §7, §8

[5] = molecular target: T5, Aurora-B (Homo sapiens, UniProt Q96GD4); experiment: Radiometric protein kinase assay, Aurora-B; conditions: 1 μM ATP; read-out: Inhibitory activity (IC50:μM) Aurora-B
T5 construct: host or cells: Sf9 insect cells (baculovirus)
From the text: as §1, §2, §3, §4, §5, §6, §7, §8

[6] = molecular target: T6, IGF1-R (Homo sapiens, UniProt P08069); experiment: Radiometric protein kinase assay, IGF1-R; conditions: 1 μM ATP; read-out: Inhibitory activity (IC50:μM) IGF1-R
T6 construct: host or cells: Sf9 insect cells (baculovirus)
From the text: as §1, §2, §3, §4, §5, §6, §7, §8

[7] = molecular target: T7, Aurora-A (Homo sapiens, UniProt O14965); experiment: Radiometric protein kinase assay, Aurora-A; conditions: 1 μM ATP; read-out: Inhibitory activity (IC50:μM) Aurora-A
T7 construct: host or cells: Sf9 insect cells (baculovirus)
T7 sequence (O14965 1-403): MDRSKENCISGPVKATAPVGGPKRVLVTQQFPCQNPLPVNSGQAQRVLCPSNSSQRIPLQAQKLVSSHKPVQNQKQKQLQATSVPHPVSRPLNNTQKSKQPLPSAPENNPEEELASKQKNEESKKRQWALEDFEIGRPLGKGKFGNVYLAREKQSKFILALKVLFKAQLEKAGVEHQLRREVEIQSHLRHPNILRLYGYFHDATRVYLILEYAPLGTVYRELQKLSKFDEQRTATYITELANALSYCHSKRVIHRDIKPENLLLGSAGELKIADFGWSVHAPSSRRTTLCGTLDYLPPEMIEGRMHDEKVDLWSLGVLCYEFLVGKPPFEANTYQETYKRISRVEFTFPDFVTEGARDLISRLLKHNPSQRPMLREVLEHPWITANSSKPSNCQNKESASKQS
From the text: as §1, §2, §3, §4, §5, §6, §7, §8

T5 sequence (Q96GD4 whole entry): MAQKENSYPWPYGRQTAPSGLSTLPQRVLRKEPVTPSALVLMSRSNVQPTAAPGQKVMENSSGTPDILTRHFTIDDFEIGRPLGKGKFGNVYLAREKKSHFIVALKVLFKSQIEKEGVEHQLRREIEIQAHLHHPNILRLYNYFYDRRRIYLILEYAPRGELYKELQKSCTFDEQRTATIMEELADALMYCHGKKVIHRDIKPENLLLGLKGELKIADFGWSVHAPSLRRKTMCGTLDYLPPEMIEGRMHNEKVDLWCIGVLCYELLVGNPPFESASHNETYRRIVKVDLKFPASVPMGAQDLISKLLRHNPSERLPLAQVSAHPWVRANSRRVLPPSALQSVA
T4 sequence (P35916 25-1363): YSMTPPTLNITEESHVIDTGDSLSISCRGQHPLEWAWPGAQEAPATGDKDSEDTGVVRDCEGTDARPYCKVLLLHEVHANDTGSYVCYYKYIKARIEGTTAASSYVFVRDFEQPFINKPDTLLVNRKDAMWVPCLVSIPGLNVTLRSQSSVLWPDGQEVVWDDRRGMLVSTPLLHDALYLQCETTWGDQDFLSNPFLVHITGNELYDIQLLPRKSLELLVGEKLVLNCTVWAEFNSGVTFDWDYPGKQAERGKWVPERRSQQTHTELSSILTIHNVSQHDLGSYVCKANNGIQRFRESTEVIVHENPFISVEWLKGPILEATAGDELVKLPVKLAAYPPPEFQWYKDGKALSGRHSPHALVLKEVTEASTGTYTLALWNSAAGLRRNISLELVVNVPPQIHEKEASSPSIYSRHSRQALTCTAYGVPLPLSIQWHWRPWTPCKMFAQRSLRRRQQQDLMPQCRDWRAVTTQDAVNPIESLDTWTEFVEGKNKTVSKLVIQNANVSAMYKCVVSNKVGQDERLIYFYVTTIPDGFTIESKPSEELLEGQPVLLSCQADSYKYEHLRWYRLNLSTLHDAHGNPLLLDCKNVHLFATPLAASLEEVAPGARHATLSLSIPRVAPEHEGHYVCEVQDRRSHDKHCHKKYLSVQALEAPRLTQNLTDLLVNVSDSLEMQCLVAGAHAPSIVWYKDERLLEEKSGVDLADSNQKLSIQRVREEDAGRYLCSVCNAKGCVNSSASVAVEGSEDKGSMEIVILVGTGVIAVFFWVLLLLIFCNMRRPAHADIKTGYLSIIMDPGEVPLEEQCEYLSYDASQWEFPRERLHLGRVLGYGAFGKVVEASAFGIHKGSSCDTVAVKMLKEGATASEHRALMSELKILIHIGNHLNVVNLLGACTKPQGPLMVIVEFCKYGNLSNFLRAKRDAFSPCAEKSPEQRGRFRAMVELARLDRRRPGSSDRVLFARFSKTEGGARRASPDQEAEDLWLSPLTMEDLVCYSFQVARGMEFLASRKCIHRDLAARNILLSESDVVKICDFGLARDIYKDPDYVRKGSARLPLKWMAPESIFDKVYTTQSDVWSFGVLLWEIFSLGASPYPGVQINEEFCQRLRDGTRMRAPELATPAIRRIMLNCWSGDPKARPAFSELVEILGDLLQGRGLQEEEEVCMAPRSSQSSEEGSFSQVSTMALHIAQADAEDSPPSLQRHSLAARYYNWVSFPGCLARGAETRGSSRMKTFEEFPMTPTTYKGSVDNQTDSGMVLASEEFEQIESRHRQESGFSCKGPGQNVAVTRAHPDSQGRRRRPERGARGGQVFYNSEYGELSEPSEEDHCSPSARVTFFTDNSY
T1 sequence (P00533 25-1210): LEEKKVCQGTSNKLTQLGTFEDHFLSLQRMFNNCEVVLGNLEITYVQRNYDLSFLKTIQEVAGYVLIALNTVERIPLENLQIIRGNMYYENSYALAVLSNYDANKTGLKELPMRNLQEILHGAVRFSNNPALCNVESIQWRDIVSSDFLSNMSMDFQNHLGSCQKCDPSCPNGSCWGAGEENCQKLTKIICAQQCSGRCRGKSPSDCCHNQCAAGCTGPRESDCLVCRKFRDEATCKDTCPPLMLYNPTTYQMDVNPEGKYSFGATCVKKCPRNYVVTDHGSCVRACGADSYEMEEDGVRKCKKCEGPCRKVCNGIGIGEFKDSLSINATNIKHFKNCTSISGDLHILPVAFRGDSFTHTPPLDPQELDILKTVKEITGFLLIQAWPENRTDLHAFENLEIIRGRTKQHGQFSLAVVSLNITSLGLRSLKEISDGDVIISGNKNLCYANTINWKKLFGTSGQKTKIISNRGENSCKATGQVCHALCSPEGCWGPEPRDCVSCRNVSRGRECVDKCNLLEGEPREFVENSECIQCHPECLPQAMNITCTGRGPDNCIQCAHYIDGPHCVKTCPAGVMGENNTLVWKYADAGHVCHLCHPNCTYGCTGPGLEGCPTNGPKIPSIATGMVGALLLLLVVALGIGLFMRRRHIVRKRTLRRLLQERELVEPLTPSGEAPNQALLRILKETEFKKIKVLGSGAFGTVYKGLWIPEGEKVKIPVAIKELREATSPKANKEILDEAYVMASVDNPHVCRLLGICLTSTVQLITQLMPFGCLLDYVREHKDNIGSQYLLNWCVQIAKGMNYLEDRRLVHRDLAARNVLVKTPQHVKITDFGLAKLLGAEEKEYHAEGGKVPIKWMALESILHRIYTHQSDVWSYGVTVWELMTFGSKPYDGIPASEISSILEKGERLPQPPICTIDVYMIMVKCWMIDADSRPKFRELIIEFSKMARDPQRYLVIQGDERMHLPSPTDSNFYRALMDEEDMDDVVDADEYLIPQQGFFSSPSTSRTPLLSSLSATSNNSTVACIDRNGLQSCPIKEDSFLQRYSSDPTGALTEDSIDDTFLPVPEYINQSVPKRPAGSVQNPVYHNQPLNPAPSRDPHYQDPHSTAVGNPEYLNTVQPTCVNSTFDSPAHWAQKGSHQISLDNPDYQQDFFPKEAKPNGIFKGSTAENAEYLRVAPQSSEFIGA
T2 sequence (P12931 whole entry): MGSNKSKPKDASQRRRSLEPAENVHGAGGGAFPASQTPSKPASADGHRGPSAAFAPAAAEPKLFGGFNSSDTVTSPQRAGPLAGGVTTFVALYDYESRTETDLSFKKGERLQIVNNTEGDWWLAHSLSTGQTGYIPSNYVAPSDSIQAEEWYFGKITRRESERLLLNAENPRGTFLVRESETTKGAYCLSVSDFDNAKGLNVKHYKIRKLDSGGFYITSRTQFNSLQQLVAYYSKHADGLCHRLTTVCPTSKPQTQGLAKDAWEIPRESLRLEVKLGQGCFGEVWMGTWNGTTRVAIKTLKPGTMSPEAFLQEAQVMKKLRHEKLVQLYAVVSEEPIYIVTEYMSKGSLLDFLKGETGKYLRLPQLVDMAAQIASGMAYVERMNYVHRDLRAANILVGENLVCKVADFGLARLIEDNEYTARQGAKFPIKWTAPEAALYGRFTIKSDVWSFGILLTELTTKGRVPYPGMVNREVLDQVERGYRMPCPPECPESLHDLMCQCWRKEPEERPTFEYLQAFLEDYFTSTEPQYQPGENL
T3 sequence (Q02763 23-1124): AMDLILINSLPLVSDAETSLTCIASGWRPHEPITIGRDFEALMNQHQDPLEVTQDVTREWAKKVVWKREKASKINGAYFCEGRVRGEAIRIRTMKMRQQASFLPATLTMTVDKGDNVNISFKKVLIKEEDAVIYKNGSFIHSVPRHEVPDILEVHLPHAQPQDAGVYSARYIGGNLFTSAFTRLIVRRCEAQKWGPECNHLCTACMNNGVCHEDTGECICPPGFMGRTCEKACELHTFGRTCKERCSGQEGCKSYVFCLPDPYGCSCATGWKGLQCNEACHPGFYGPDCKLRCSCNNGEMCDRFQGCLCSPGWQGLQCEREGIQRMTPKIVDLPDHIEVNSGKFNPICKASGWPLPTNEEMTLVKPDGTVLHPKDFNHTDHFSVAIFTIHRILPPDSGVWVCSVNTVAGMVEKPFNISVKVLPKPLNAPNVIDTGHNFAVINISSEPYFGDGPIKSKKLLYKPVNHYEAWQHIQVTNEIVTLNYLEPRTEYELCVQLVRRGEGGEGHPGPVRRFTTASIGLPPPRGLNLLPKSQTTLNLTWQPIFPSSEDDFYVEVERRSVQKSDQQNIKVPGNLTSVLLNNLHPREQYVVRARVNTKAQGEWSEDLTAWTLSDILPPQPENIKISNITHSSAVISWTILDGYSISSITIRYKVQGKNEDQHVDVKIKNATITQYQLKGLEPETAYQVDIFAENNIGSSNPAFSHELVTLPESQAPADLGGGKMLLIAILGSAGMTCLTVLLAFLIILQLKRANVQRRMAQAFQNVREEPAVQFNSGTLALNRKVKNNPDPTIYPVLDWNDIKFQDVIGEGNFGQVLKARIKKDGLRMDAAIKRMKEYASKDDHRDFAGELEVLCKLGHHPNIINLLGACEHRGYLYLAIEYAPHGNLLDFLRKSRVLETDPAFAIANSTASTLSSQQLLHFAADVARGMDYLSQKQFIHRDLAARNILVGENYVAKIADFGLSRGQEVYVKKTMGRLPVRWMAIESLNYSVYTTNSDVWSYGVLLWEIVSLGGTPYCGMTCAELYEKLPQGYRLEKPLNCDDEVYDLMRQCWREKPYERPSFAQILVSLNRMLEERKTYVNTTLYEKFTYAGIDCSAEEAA

SMILES | IC50 [1] [µM] | IC50 [2] [µM] | IC50 [3] [µM] | IC50 [4] [µM] | IC50 [5] [µM] | IC50 [6] [µM] | IC50 [7] [µM]
O=C1/C=C/CCC2OC2C[C@@H](Cc2ccccc2)OC(=O)c2c(O)cc(O)cc2C1 (stereo partly shown) [A-6] | 32 | 20 | 25 | 34 | 16 | 21 | –
CC(C)[C@@H]1CC2OC2CC/C=C/C(=O)Cc2c(Cl)c(O)cc(O)c2C(=O)O1 (stereo partly shown) [A-4] | 22 | 12 | – | 31 | 36 | 13 | 30

Results, then the molecule that gave them:

IC50 [1] [µM] | IC50 [2] [µM] | IC50 [3] [µM] | IC50 [4] [µM] | IC50 [5] [µM] | IC50 [6] [µM] | IC50 [7] [µM] | SMILES
16 | 12 | – | 31 | – | – | 47 | O=C1/C=C/CCC2OC2C[C@H](c2ccccc2)OC(=O)c2c(O)cc(O)c(Cl)c2C1 (stereo partly shown) [A-5]
14 | 14 | 15 | 19 | 14 | 19 | – | O=C1Cc2c(Cl)c(O)cc(O)c2C(=O)O[C@H](c2ccccc2)C/C=C/CCC(Cl)C1 (stereo partly shown) [A-3]
10 | – | 16 | 40 | 16 | 16 | 14 | COC1CC/C=C/C[C@H](c2ccccc2)OC(=O)c2c(O)cc(O)c(Cl)c2CC(=O)C1 (stereo partly shown) [A-2]
